{"source": "patent US11866720B2", "about": "“Transgenic or non-transgenic plants with mutated protoporphyrinogen oxidase having increased tolerance to herbicides” (priority 2013, dated 2024)", "key": {"[1]": {"system": "transgenic soybean expressing mutated PPO", "assay": "Soybean T0 cuttings, greenhouse spray test (injury score 0-9, 1 week after treatment)", "format": "in vivo, Glycine max", "conditions": "for Injury score from 0-9: soybean T0 cuttings, 1 week after treatment", "excerpt": "For testing of T0 plants, cuttings can be used. In the case of soybean plants, an optimal shoot for cutting is about 7.5 to 10 cm tall, with at least two nodes present. Each cutting is taken from the original transformant (mother plant) and dipped into rooting hormone powder (indole-3-butyric acid, IBA). The cutting is then placed in oasis wedges inside a bio-dome. Wild type cuttings are also taken simultaneously to serve as controls. The cuttings are kept in the bio-dome for 5-7 days and then transplanted to pots and then acclimated in the growth chamber for two more days. Subsequently, the cuttings are transferred to the greenhouse, acclimated for approximately 4 days, and then subjected to spray tests as indicated. Depending on the species, the plants are kept at 10-25° C. or 20-35° C. The test period extends over 3 weeks. During this time, the plants are tended and their response to the individual treatments is evaluated. Herbicide injury evaluations are taken at 2 and 3 weeks after treatment. Plant injury is rated on a scale of 0% to 100%, 0% being no injury and 100% being complete death.\nSoybean cv Jake was transformed as previously described by Siminszky et al., Phytochem Rev. 5:445-458 (2006). After regeneration, transformants were transplanted to soil in small pots, placed in growth chambers (16 hr day/8 hr night; 25° C. day/23° C. night; 65% relative humidity; 130-150 microE m-2 s-1) and subsequently tested for the presence of the T-DNA via Taqman analysis. After a few weeks, healthy, transgenic positive, single copy events were transplanted to larger pots and allowed to grow in the growth chamber. An optimal shoot for cutting was about 3-4 inches tall, with at least two nodes present. Each cutting was taken from the original transformant (mother plant) and dipped into rooting hormone powder (indole-3-butyric acid, IBA). The cutting was then placed in oasis wedges inside a bio-dome. The mother plant was taken to maturity in the greenhouse and harvested for seed. Wild type cuttings were also taken simultaneously to serve as negative controls. The cuttings were kept in the bio-dome for 5-7 days and then transplanted to 3 inch pots and then acclimated in the growth chamber for two more days. […] Herbicide injury evaluations were taken at 2, 7, 14 and 21 days after treatment. Results are shown in Tables 11a-11i, and FIGS. 5, 6, and 7.\nThe following gives a definition of the injury scores measured above: […]"}, "[2]": {"system": "transgenic soybean expressing mutated PPO", "assay": "Soybean segregating T1 individuals, greenhouse spray test (injury 0-9)", "format": "in vivo, Glycine max", "conditions": "benzoxazin 100 g ai/ha, 1 week after treatment"}, "[3]": {"system": "transgenic soybean expressing mutated PPO", "format": "in vivo, Glycine max", "conditions": "T1 soybean, field; for injury (1-5 point scale): benzoxazin (BAS 850H) 100 g ai/ha, 3 days after treatment"}, "[4]": {"system": "transgenic Arabidopsis thaliana plants expressing wildtype or mutated PPO", "assay": "Germination / growth inhibition assay of transgenic Arabidopsis T2 seeds in 48-well plates", "conditions": "growth inhibition seven to ten days after seeding"}, "[5]": {"conditions": "SDS-10648 AmtuPPX2L R128A_F420I"}}, "note": "Several values for one entry are separate records, joined by “and”; a condition that tells them apart may be missing. Equal values may be shown once. Read-outs that look alike come from different tables or passages of the source. Wherever injury (1-5 point scale) is given: key: 1: no obvious damage (no phytotoxicity); 2: minor amount of leaf damage, plant will survive; 3: moderate amount of leaf damage, plant will survive; 4: severe amount of leaf damage, plant will survive; 5: no surviving plants - all plants dead/dying.", "data": [{"smiles": "C#CCN1C(=O)C(F)(F)Oc2cc(F)c(-n3c(=O)n(C)c(=S)n(C)c3=O)cc21", "values": [{"measurement": "injury score 1 WAT", "setting": "[1]; Soy T0 AmtuPPX2L_R128L_F420V event 1, greenhouse, 25 g ai/ha", "value": 3}, {"measurement": "injury score 1 WAT", "setting": "[1]; Soy T0 AmtuPPX2L_R128L_F420V event 1, greenhouse, 50 g ai/ha", "value": 4}, {"measurement": "injury score 1 WAT", "setting": "[1]; Soy T0 AmtuPPX2L_R128L_F420V event 1, greenhouse, 75 g ai/ha", "value": 5}, {"measurement": "injury score 1 WAT", "setting": "[1]; Soy T0 AmtuPPX2L_R128L_F420V event 2, greenhouse, 25 g ai/ha", "value": 0}, {"measurement": "injury score 1 WAT", "setting": "[1]; Soy T0 AmtuPPX2L_R128L_F420V event 2, greenhouse, 50 g ai/ha", "value": 1}, {"measurement": "injury score 1 WAT", "setting": "[1]; Soy T0 AmtuPPX2L_R128L_F420V event 2, greenhouse, 75 g ai/ha", "value": 3}, {"measurement": "Injury score from 0-9", "setting": "[1]; AmtuPPX2L (10 events), benzoxazin 12.5 + 1% MSO", "value": 3}, {"measurement": "Injury score from 0-9", "setting": "[1]; AmtuPPX2L (10 events), benzoxazin 25 + 1% MSO", "value": 5}, {"measurement": "Injury score from 0-9", "setting": "[1]; AmtuPPX2L_F420L (7 events), benzoxazin 12.5 + 1% MSO", "value": 2}, {"measurement": "Injury score from 0-9", "setting": "[1]; AmtuPPX2L_F420L (7 events), benzoxazin 25 + 1% MSO", "value": 1}, {"measurement": "Injury score from 0-9", "setting": "[1]; AmtuPPX2L_F420M (8 events), benzoxazin 25 + 1% MSO", "value": 1}, {"measurement": "Injury score from 0-9", "setting": "[1]; AmtuPPX2L_F420M (8 events), benzoxazin 50 + 1% MSO", "value": 2}, {"measurement": "Injury score from 0-9", "setting": "[1]; AmtuPPX2L_R128A_F420I (9 events), benzoxazin 25 + 1% MSO", "value": 2}, {"measurement": "Injury score from 0-9", "setting": "[1]; AmtuPPX2L_R128A_F420I (9 events), benzoxazin 50 + 1% MSO", "value": 2}, {"measurement": "Injury score from 0-9", "setting": "[1]; AmtuPPX2L_R128A_F420I (9 events), benzoxazin 75 + 1% MSO", "value": 3}, {"measurement": "Injury score from 0-9", "setting": "[1]; AmtuPPX2L_R128A_F420L (6 events), benzoxazin 25 + 1% MSO", "value": 0}, {"measurement": "Injury score from 0-9", "setting": "[1]; AmtuPPX2L_R128A_F420M (7 events), benzoxazin 25 + 1% MSO", "value": 3}, {"measurement": "Injury score from 0-9", "setting": "[1]; AmtuPPX2L_R128A_F420M (7 events), benzoxazin 50 + 1% MSO", "value": 3}, {"measurement": "Injury score from 0-9", "setting": "[1]; AmtuPPX2L_R128A_F420M (7 events), benzoxazin 75 + 1% MSO", "value": 4}, {"measurement": "Injury score from 0-9", "setting": "[1]; AmtuPPX2L_R128A_F420V (14 events), benzoxazin 25 + 1% MSO", "value": 2}, {"measurement": "Injury score from 0-9", "setting": "[1]; AmtuPPX2L_R128A_F420V (14 events), benzoxazin 50 + 1% MSO", "value": 2}, {"measurement": "Injury score from 0-9", "setting": "[1]; AmtuPPX2L_R128A_F420V (14 events), benzoxazin 75 + 1% MSO", "value": 3}, {"measurement": "Injury score from 0-9", "setting": "[1]; AmtuPPX2L_dG210 (13 events), benzoxazin 25 + 1% MSO", "value": 1}, {"measurement": "Injury score from 0-9", "setting": "[1]; AmtuPPX2L_dG210 (13 events), benzoxazin 50 + 1% MSO", "value": 3}, {"measurement": "Injury score from 0-9", "setting": "[1]; AmtuPPX2L_dG210_R128L (12 events), benzoxazin 25 + 1% MSO", "value": 2}, {"measurement": "Injury score from 0-9", "setting": "[1]; AmtuPPX2L_dG210_R128L (12 events), benzoxazin 50 + 1% MSO", "value": 3}, {"measurement": "Injury score from 0-9", "setting": "[1]; NitabPPX2 (13 events), benzoxazin 12.5 + 1% MSO", "value": 6}, {"measurement": "Injury score from 0-9", "setting": "[1]; NitabPPX2 (13 events), benzoxazin 25 + 1% MSO", "value": 6}, {"measurement": "Injury score from 0-9", "setting": "[1]; NitabPPX2_R98A_F392V (9 events), benzoxazin 25 + 1% MSO", "value": 0}, {"measurement": "Injury score from 0-9", "setting": "[1]; NitabPPX2_R98A_F392V (9 events), benzoxazin 50 + 1% MSO", "value": 0}, {"measurement": "Injury score from 0-9", "setting": "[1]; wild type Jake variety, benzoxazin 12.5 + 1% MSO", "value": 7}, {"measurement": "Injury score from 0-9", "setting": "[1]; wild type Jake variety, benzoxazin 25 + 1% MSO", "value": 8}, {"measurement": "Injury score from 0-9", "setting": "[1]; wild type Jake variety, benzoxazin 50 + 1% MSO", "value": 9}, {"measurement": "Injury score from 0-9", "setting": "[1]; wild type Jake variety, benzoxazin 75 + 1% MSO", "value": 9}, {"measurement": "injury (0-9 point scale)", "setting": "[2]; SDS10791 AmtuPPX2L R128A_F420I", "value": "3 (2×) and 2 and 4 (3×) and 9 and 5"}, {"measurement": "injury (0-9 point scale)", "setting": "[2]; SDS-10642 AmtuPPX2L R128A_F420L", "value": "6 and 5 (5×) and 9 and 4"}, {"measurement": "injury (0-9 point scale)", "setting": "[2]; [5]", "value": "4 (3×) and 9 and 5 (4×)"}, {"measurement": "injury (0-9 point scale)", "setting": "[2]; SDS-10652 AmtuPPX2L L397D_F420V", "value": "9 (2×) and 4 (6×)"}, {"measurement": "injury (0-9 point scale)", "setting": "[2]; SDS-10787 AmtuPPX2L R128A_F420L", "value": "4 and 5 (3×) and 9 (2×) and 6 (2×)"}, {"measurement": "injury (0-9 point scale)", "setting": "[2]; SDS-10985 AmtuPPX2L R128A_F420M", "value": "9 (5×) and 6 (3×)"}, {"measurement": "injury (0-9 point scale)", "setting": "[2]; SDS-10990 AmtuPPX2L R128A_F420M", "value": "9 (3×) and 7 (2×) and 6 (3×)"}, {"measurement": "injury (0-9 point scale)", "setting": "[2]; SDS-11034 AmtuPPX2L R128A_F420V", "value": "4 (3×) and 3 (3×) and 2 (2×)"}, {"measurement": "injury (0-9 point scale)", "setting": "[2]; wild type", "value": "9 (7×) and 8"}, {"measurement": "Injury rating (1-5 point scale)", "setting": "[3]; AmtuPPX2L_R128A_F420V (event 10), BAS 850H: treatment 1 100 g ai/ha, treatment 2 0, 7DAT", "value": 3.5}, {"measurement": "Injury rating (1-5 point scale)", "setting": "[3]; AmtuPPX2L_R128A_F420V (event 10), BAS 850H: treatment 1 300 g ai/ha, treatment 2 300 g ai/ha, 14 DAT", "value": 3}, {"measurement": "injury (1-5 point scale)", "setting": "[3]; [5]", "value": 3}, {"measurement": "injury (1-5 point scale)", "setting": "[3]; SDS-10791 AmtuPPX2L R128A_F420I", "value": 2}, {"measurement": "injury (1-5 point scale)", "setting": "[3]; SDS-11014 AmtuPPX2L R128A_F420I", "value": 2}, {"measurement": "injury (1-5 point scale)", "setting": "[3]; SDS-11034 AmtuPPX2L L397D_F420V", "value": 3}, {"measurement": "injury (1-5 point scale)", "setting": "[3]; SDS-11035 AmtuPPX2L R128A_F420V", "value": 2}, {"measurement": "injury (1-5 point scale)", "setting": "[3]; SDS-11052 AmtuPPX2L R128A_F420M", "value": 3}, {"measurement": "Injury rating (1-5 point scale)", "setting": "[3]; wild type, BAS 850H: treatment 1 100 g ai/ha, treatment 2 0, 7DAT", "value": 5}, {"measurement": "Injury rating (1-5 point scale)", "setting": "[3]; wild type, BAS 850H: treatment 1 300 g ai/ha, treatment 2 300 g ai/ha, 14 DAT", "value": 5}, {"measurement": "injury (1-5 point scale)", "setting": "[3]; wild type", "value": 5}, {"measurement": "Relative tolerance rate as compared to a non-transgenic Arabidopsis plant (non-transgenic = 1.0)", "setting": "[4]; transgenic Arabidopsis AMATU_PPO2_F420I", "value": 367}, {"measurement": "Relative tolerance rate as compared to a non-transgenic Arabidopsis plant (non-transgenic = 1.0)", "setting": "[4]; transgenic Arabidopsis AMATU_PPO2_F420L", "value": 253}, {"measurement": "Relative tolerance rate as compared to a non-transgenic Arabidopsis plant (non-transgenic = 1.0)", "setting": "[4]; transgenic Arabidopsis AMATU_PPO2_F420M", "value": 102}, {"measurement": "Relative tolerance rate as compared to a non-transgenic Arabidopsis plant (non-transgenic = 1.0)", "setting": "[4]; transgenic Arabidopsis AMATU_PPO2_R128A_F420I", "value": 333}, {"measurement": "Relative tolerance rate as compared to a non-transgenic Arabidopsis plant (non-transgenic = 1.0)", "setting": "[4]; transgenic Arabidopsis AMATU_PPO2_R128A_F420L", "value": 333}, {"measurement": "Relative tolerance rate as compared to a non-transgenic Arabidopsis plant (non-transgenic = 1.0)", "setting": "[4]; transgenic Arabidopsis AMATU_PPO2_R128A_F420M", "value": 204}, {"measurement": "Relative tolerance rate as compared to a non-transgenic Arabidopsis plant (non-transgenic = 1.0)", "setting": "[4]; transgenic Arabidopsis AMATU_PPO2_R128L", "value": 23}, {"measurement": "Relative tolerance rate as compared to a non-transgenic Arabidopsis plant (non-transgenic = 1.0)", "setting": "[4]; transgenic Arabidopsis AMATU_PPO2_dG210", "value": 33}, {"measurement": "Relative tolerance rate as compared to a non-transgenic Arabidopsis plant (non-transgenic = 1.0)", "setting": "[4]; transgenic Arabidopsis AMATU_PPO2_dG210_R128L", "value": 153}, {"measurement": "Relative tolerance rate as compared to a non-transgenic Arabidopsis plant (non-transgenic = 1.0)", "setting": "[4]; transgenic Arabidopsis AMATU_PPO2_wt", "value": 13}]}]}
